System: NF-κB Luciferase Reporter Hela cells
Assay: TNF-α inducing NF-κB reporter
Assay type: cell-based
Settings: Homo sapiens, 6 h, Bright-Glo luciferase
Method: Biological Assay 2: TNF-α inducing NF-κB reporter
• 1) tested compounds were added into DMSO to give parent liquor (10 mM); • 2) reference compound Birinapant (32 μL, 10 mM) was added into DMSO (128 μL) to give a solution (2 mM); • 3) 0.5 μL reference compound Birinapant (2 mM) and tested compounds (10 mM) were taken by Echo and added into Greiner 96 well black cell culture plate respectively. The initial concentration of the reference compound and tested compound was 10 μM and 50 μM, respectively. Then, the reference compound and tested compounds were diluted at 9 points in series by 5-fold; and every plate was repeated for 3 times. • 4) the reference compound WXFL2012A001 (Birinapant) (final concentration: 10 μM) as HPE and DMSO (final concentration: 0.5%) as ZPE.
• 5) purpose of the three repeated plates: the first plate was used for testing compounds' activity;
the second plate was used for testing cytotoxicity of the compounds; the third plate was used for solution replacement of the first and second plates: mixing inducer TNF-α and medium containing 0.1% FBS, and then being added to the third plate and the resultant mixture was transferred to the first plate where supernatants had been removed.
• 1) removing medium in NF-iBLuciferase Reporter Hela cell culture flask and washing cell once with PBS (10 mL) • 2) adding 0.25% pancreatin (3 mL) to T150 cell culture flask, and placinginto cell incubator (37° C., 5%CO2) and dissociating cell for 3 min, and then medium (10 mL) was added to end dissociation and blowing cells with electric pipette until cells were dispersed into single cell. • 3) Calculating cell density with cell counter Countstar • 4) Adjusting NF-κB Luciferase Reporter Hela density with medium to 2.0×10^5 cells/mL • 5) Adding cells to two Greiner 96 well black cell culture plates containing compounds, (100 μL per well (2.0×10^4 cells/well)), one plate was used for testing compounds' activity, another was used for testing cytotoxicity of the compounds. • 6) Placing cell culture plates into cell incubator (37° C., 5%CO2) and incubatingfor 24 h Second Day TNF-α Inducing • 1) TNF-α (100 μg/mL) was diluted into 20 ng/mL with 0.1% FBS medium and transferredto the third plate with 100 μL per well • 2) Removing medium of the first 96 well black cell culture plate (compound activity testing plate) after 24 h, replacing with fresh medium containing the compound and 20 ng/mL TNF-α in the third plate • 3) Placing cell culture plate into cell incubator (37° C., 5% CO2) and incubatingfor 6 h • 4) after 6 h, compound's activity in the first plate was tested according to Bright-Glo (Promega) manual method, luciferase signal in each well was tested by Envision plate reader • 5) compound's cytotoxicity in the second plate was tested according to ATPlite 1Step (Perkin Elmer) manual method, luciferase signal in each well was tested by Envision plate reader • 6) analyzing with software to obtain EC50 of compound.

[1] = Table 3, 20 ng/mL TNF-α, values given as ranges

Compound	EC50 (Table 4, 20 ng/mL TNF-α, exact values with control Birinapant) [nM]	EC50 [1] [nM]
CC[C@H](NC(=O)[C@H](C)NC)C(=O)N1C[C@@H](O)C[C@H]1Cc1c(-c2[nH]c3cc(F)ccc3c2C[C@@H]2C[C@H](O)CN2C(=O)[C@H](CC)NC(=O)[C@H](C)NC)[nH]c2cc(F)ccc12 [Birinapant, reference compound]	7.05	
CCC[C@H](NC(=O)[C@H](C)NC)C(=O)N1CCC[C@H]1Cn1c(-c2[nH]c3cc(F)ccc3c2C[C@@H]2CCCN2C(=O)[C@@H](NC(=O)[C@H](C)NC)C(C)(C)C)nc2cc(F)ccc21 [Embodiment 11]		10 to 100
CCC[C@H](NC(=O)[C@H](C)NC)C(=O)N1CCC[C@H]1Cn1c(-c2[nH]c3cc(F)ccc3c2C[C@@H]2CCCN2C(=O)[C@@H](NC(=O)[C@H](C)NC)C2CCCCC2)nc2cc(F)ccc21 [Embodiment 12]		10 to 100
CCC[C@H](NC(=O)[C@H](C)NC)C(=O)N1C[C@@H](F)C[C@H]1Cc1c(-c2nc3cc(F)ccc3n2C[C@@H]2C[C@H](F)CN2C(=O)[C@H](CCC)NC(=O)[C@H](C)NC)[nH]c2cc(F)ccc12 [Embodiment 15]		10 to 100
CC[C@H](NC(=O)[C@H](C)NC)C(=O)N1CCC[C@H]1Cc1c(-c2nc3cc(F)ccc3n2C[C@@H]2C[C@H](F)CN2C(=O)[C@@H](NC(=O)[C@H](C)NC)C(C)C)[nH]c2cc(F)ccc12 [Embodiment 37]		10 to 100
CC[C@H](NC(=O)[C@H](C)NC)C(=O)N1CCC[C@H]1Cn1c(-c2[nH]c3cc(F)ccc3c2C[C@@H]2C[C@H](F)CN2C(=O)[C@@H](NC(=O)[C@H](C)NC)C(C)C)nc2cc(F)ccc21 [Embodiment 41]		10 to 100
CN[C@@H](C)C(=O)N[C@H](C(=O)N1CC(F)(F)C[C@H]1Cc1c(-c2nc3cc(F)ccc3n2C[C@@H]2CC(F)(F)CN2C(=O)[C@@H](NC(=O)[C@H](C)NC)C(C)C)[nH]c2cc(F)ccc12)C(C)C [Embodiment 45]		10 to 100
CC[C@H](NC(=O)[C@H](C)NC)C(=O)N1CC(F)(F)C[C@H]1Cn1c(-c2[nH]c3cc(F)ccc3c2C[C@@H]2CC(F)(F)CN2C(=O)[C@@H](NC(=O)[C@H](C)NC)C(C)C)nc2cc(F)ccc21 [Embodiment 47]		10 to 100
CC[C@H](NC(=O)[C@H](C)NC)C(=O)N1C[C@@H](F)C[C@H]1Cc1c(-c2nc3cc(F)ccc3n2C[C@@H]2[C@@H](C)[C@@H](C)CN2C(=O)[C@H](CC)NC(=O)[C@H](C)NC)[nH]c2cc(F)ccc12 [Embodiment 48]		10 to 100
CC[C@H](NC(=O)[C@H](C)NC)C(=O)N1C[C@@H](F)C[C@H]1Cc1c(-c2nc3cc(F)ccc3n2C[C@@H]2C[C@H](F)CN2C(=O)[C@@H](NC(=O)[C@H](C)NC)C(C)C)[nH]c2ccccc12 [Embodiment 50]		10 to 100

Other lines, results leading:

EC50 (Table 4, 20 ng/mL TNF-α, exact values with control Birinapant) [nM]	EC50 [1] [nM]	Compound
	< 10	CC[C@H](NC(=O)[C@H](C)NC)C(=O)N1CCC[C@H]1Cc1c(-c2nc3cc(F)ccc3n2C[C@@H]2CCCN2C(=O)[C@@H](NC(=O)[C@H](C)NC)C(C)(C)C)[nH]c2cc(F)ccc12 [Embodiment 3]
	10 to 100	CC[C@H](NC(=O)[C@H](C)NC)C(=O)N1CCC[C@H]1Cc1c(-c2nc3cc(F)ccc3n2C[C@@H]2CCCN2C(=O)[C@@H](NC(=O)[C@H](C)NC)C2CCCCC2)[nH]c2cc(F)ccc12 [Embodiment 4]
	10 to 100	CC[C@H](NC(=O)[C@H](C)NC)C(=O)N1CCC[C@H]1Cn1c(-c2[nH]c3cc(F)ccc3c2C[C@@H]2CCCN2C(=O)[C@@H](NC(=O)[C@H](C)NC)C(C)(C)C)nc2cc(F)ccc21 [Embodiment 5]
	10 to 100	CC[C@H](NC(=O)[C@H](C)NC)C(=O)N1CCC[C@H]1Cn1c(-c2[nH]c3cc(F)ccc3c2C[C@@H]2CCCN2C(=O)[C@@H](NC(=O)[C@H](C)NC)C2CCCCC2)nc2cc(F)ccc21 [Embodiment 6]
	10 to 100	CCC[C@H](NC(=O)[C@H](C)NC)C(=O)N1CCC[C@H]1Cc1c(-c2nc3cc(F)ccc3n2C[C@@H]2CCCN2C(=O)[C@@H](NC(=O)[C@H](C)NC)C(C)C)[nH]c2cc(F)ccc12 [Embodiment 7]
	< 10	CCC[C@H](NC(=O)[C@H](C)NC)C(=O)N1CCC[C@H]1Cc1c(-c2nc3cc(F)ccc3n2C[C@@H]2CCCN2C(=O)[C@@H](NC(=O)[C@H](C)NC)C(C)(C)C)[nH]c2cc(F)ccc12 [Embodiment 8]
	10 to 100	CCC[C@H](NC(=O)[C@H](C)NC)C(=O)N1CCC[C@H]1Cc1c(-c2nc3cc(F)ccc3n2C[C@@H]2CCCN2C(=O)[C@@H](NC(=O)[C@H](C)NC)C2CCCCC2)[nH]c2cc(F)ccc12 [Embodiment 9]
	10 to 100	CCC[C@H](NC(=O)[C@H](C)NC)C(=O)N1CCC[C@H]1Cn1c(-c2[nH]c3cc(F)ccc3c2C[C@@H]2CCCN2C(=O)[C@@H](NC(=O)[C@H](C)NC)C(C)C)nc2cc(F)ccc21 [Embodiment 10]
	< 10	CCC[C@H](NC(=O)[C@H](C)NC)C(=O)N1C[C@@H](F)C[C@H]1Cc1c(-c2nc3cc(F)ccc3n2C[C@@H]2C[C@H](F)CN2C(=O)[C@@H](NC(=O)[C@H](C)NC)C(C)(C)C)[nH]c2cc(F)ccc12 [Embodiment 33]
	< 10	CCC[C@H](NC(=O)[C@H](C)NC)C(=O)N1C[C@@H](F)C[C@H]1Cc1c(-c2nc3cc(F)ccc3n2C[C@@H]2C[C@H](F)CN2C(=O)[C@@H](NC(=O)[C@H](C)NC)C2CCCCC2)[nH]c2cc(F)ccc12 [Embodiment 34]
	< 10	CCC[C@H](NC(=O)[C@H](C)NC)C(=O)N1C[C@@H](F)C[C@H]1Cn1c(-c2[nH]c3cc(F)ccc3c2C[C@@H]2C[C@H](F)CN2C(=O)[C@@H](NC(=O)[C@H](C)NC)C(C)(C)C)nc2cc(F)ccc21 [Embodiment 35]
	< 10	CN[C@@H](C)C(=O)N[C@H](C(=O)N1C[C@@H](F)C[C@H]1Cc1c(-c2nc3cc(F)ccc3n2C[C@@H]2[C@@H](C)[C@@H](C)CN2C(=O)[C@@H](NC(=O)[C@H](C)NC)C(C)C)[nH]c2cc(F)ccc12)C(C)C [Embodiment 49]
	< 10	CC[C@H](NC(=O)[C@H](C)NC)C(=O)N1C[C@@H](F)C[C@H]1Cc1c(-c2nc3cc(F)ccc3n2C[C@@H]2C[C@H](F)CN2C(=O)[C@@H](NC(=O)[C@H](C)NC)C(C)C)[nH]c2cc(Cl)ccc12 [Embodiment 51]
